Experimental data from patent US9670201B2, “Methyl- and trifluoromethyl-substituted pyrrolopyridine modulators of RORC2 and methods of use thereof” (Pfizer Inc., priority 2014, dated 2017).

Target: RORC2 ligand binding domain (6-His-RORC2 LBD) (Homo sapiens (Human), UniProt P51449)
Assay: Co-activator recruitment by TR-FRET
Type: biochemical
Settings: 6-His-RORC2 LBD / SRC1-2 coactivator peptide, Table 1

RORC2 ligand binding domain (6-His-RORC2 LBD), sequence (P51449 269-508): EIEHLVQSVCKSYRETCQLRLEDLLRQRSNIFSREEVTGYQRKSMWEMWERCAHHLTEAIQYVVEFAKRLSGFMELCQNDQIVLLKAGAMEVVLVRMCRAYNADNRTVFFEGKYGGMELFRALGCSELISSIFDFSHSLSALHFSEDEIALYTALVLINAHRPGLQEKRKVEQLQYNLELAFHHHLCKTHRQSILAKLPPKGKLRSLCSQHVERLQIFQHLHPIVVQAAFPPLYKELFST

| SMILES | IC50 |
| --- | --- |
| Cn1cc([C@@H]2CCN(C(=O)C3CCCC3)C(C)(C)C2)c2c(C(F)(F)F)c(NC(=O)c3cccc(C#N)c3)cnc21 [Example 65, (R)-3-cyano-N-(3-(1-(cyclopentanecarbonyl)-2,2-dimethylpiperidin-4-yl)-1-methyl-4-(trifluoromethyl)-1H-pyrrolo[2,3-b]pyridin-5-yl)benzamide] | 5.7 nM |
| Cc1c(NC(=O)c2cccc(C#N)c2)cnc2c1c([C@@H]1CCN(C(=O)C[C@@H](O)C(F)(F)F)C(C)(C)C1)cn2C [Example 73, 3-cyano-N-(3-((R)-2,2-dimethyl-1-((R)-4,4,4-trifluoro-3-hydroxybutanoyl)piperidin-4-yl)-1,4-dimethyl-1H-pyrrolo[2,3-b]pyridin-5-yl)benzamide] | 22.6 nM |
| Cc1c(NC(=O)c2cccc(C#N)c2)cnc2c1c([C@@H]1CCN(C(=O)CC3CCCC3)C(C)(C)C1)cn2C [Example 74, (R)-3-cyano-N-(3-(1-(2-cyclopentylacetyl)-2,2-dimethylpiperidin-4-yl)-1,4-dimethyl-1H-pyrrolo[2,3-b]pyridin-5-yl)benzamide] | 6.2 nM |
| Cc1c(NC(=O)c2cccc(C#N)c2)cnc2c1c([C@@H]1CCN(C(=O)CC3CCCCC3)C(C)(C)C1)cn2C [Example 75, (R)-3-cyano-N-(3-(1-(2-cyclohexylacetyl)-2,2-dimethylpiperidin-4-yl)-1,4-dimethyl-1H-pyrrolo[2,3-b]pyridin-5-yl)benzamide] | 7.3 nM |
| Cc1c(NC(=O)c2cccc(C#N)c2)cnc2c1c([C@@H]1CCN(C(=O)CC3CCC3)C(C)(C)C1)cn2C [Example 76, (R)-3-cyano-N-(3-(1-(2-cyclobutylacetyl)-2,2-dimethylpiperidin-4-yl)-1,4-dimethyl-1H-pyrrolo[2,3-b]pyridin-5-yl)benzamide] | 7.5 nM |
| CC(C)C(=O)N1C[C@H]2CC[C@@H](C1)[C@@H]2c1cn(C)c2ncc(NC(=O)c3cccc(C#N)c3)c(C(F)(F)F)c12 [Example 77, 3-cyano-N-(3-((1R,5S,8r)-3-isobutyryl-3-azabicyclo[3.2.1]octan-8-yl)-1-methyl-4-(trifluoromethyl)-1H-pyrrolo[2,3-b]pyridin-5-yl)benzamide] | 5.2 nM |
| Cn1cc(C2[C@@H]3CC[C@H]2CN(C(=O)C2CCCC2)C3)c2c(C(F)(F)F)c(NC(=O)c3cccc(C#N)c3)cnc21 (stereo partly drawn) [Example 79, 3-cyano-N-{3-((1R,5S,8r)-3-(cyclopentanecarbonyl)-3-azabicyclo[3.2.1]octan-8-yl]-1-methyl-4-(trifluoromethyl)-1H-pyrrolo[2,3-b]pyridin-5-yl}benzamide] | 39.1 nM |
| CC(C)C(=O)N1CC[C@@H](c2cn(C)c3ncc(NC(=O)c4cccc(C#N)c4F)c(C(F)(F)F)c23)[C@@H](C)C1 [Example 82, 3-cyano-2-fluoro-N-(3-((3R,4R)-1-isobutyryl-3-methylpiperidin-4-yl)-1-methyl-4-(trifluoromethyl)-1H-pyrrolo[2,3-b]pyridin-5-yl)benzamide] | 5.1 nM |
| Cc1c(NC(=O)c2cccc(C#N)c2)cnc2c1c([C@@H]1CCN(C(=O)C(C)C3CC3)C[C@@H]1C)cn2C (stereo partly drawn) [Example 86, 3-cyano-N-(3-((3R,4R)-1-(2-cyclopropylpropanoyl)-3-methylpiperidin-4-yl)-1,4-dimethyl-1H-pyrrolo[2,3-b]pyridin-5-yl)benzamide] | 16 nM |
| COc1cc(C#N)cc(C(=O)Nc2cnc3c(c([C@@H]4CCN(C(=O)C5CCCC5)[C@@H](C)C4)cn3C)c2C)c1 [Example 90, 3-cyano-N-(3-((2S,4R)-1-(cyclopentanecarbonyl)-2-methylpiperidin-4-yl)-1,4-dimethyl-1H-pyrrolo[2,3-b]pyridin-5-yl)-5-methoxybenzamide] | 21.2 nM |
| COc1ccc(C(=O)Nc2cnc3c(c(C4[C@@H]5CC[C@H]4CN(C(=O)C4CCCC4)C5)cn3C)c2C)cc1C#N (stereo partly drawn) [Example 99, 3-cyano-N-(3-((1R,5S,8r)-3-(cyclopentanecarbonyl)-3-azabicyclo[3.2.1]octan-8-yl)-1,4-dimethyl-1H-pyrrolo[2,3-b]pyridin-5-yl)-4-methoxybenzamide] | 21.1 nM |
| Cc1c(NC(=O)c2cccc(C#N)c2)cnc2c1c([C@@H]1CCN(C(=O)C(C)C)[C@@H](C)C1)cn2C [Example 113, 3-cyano-N-(3-((2S,4R)-1-isobutyryl-2-methylpiperidin-4-yl)-1,4-dimethyl-1H-pyrrolo[2,3-b]pyridin-5-yl)benzamide] | 20.2 nM |
